In ChEMBL document CHEMBL3885861, “Open TG-GATES”:

Species on record: Rattus norvegicus
Experiment: Open TG-GATES - Regimen: Single
Type: toxicity, organism-based, Sprague-Dawley
Design: regimen Single, gender Male, age 6 weeks
Conditions: in vivo, po, 150 mg/kg, route gavage, dose level High; for APTT / Bas / Eos / Fbg / Hb / Ht / Lym / MCH / MCHC / MCV / Mono / Neu / PT / Plat / RBC / Ret / WBC: tissue Blood; for KIDNEY_L / KIDNEY_R / KIDNEY_TOTAL: tissue Kidney; for LIVER: tissue Liver; for A/G / ALP / ALT / AST / BUN / CRE / Ca / Cl / DBIL / GLC / IP / K / LDH / Na / PL / RALB / TBIL / TC / TG / TP / gamma-GTP: tissue Plasma

**Q.** `Nc1nc(N)c2nc(-c3ccccc3)c(N)nc2n1` was tested. Which TERMINAL_BW (3 h) did it give?
**A.** 213.5 g

**Q.** What about the APTT (3 h) of the same molecule?
**A.** 17.4 s

**Q.** What about the Bas (3 h) of the same molecule?
**A.** 0.4%

**Q.** And the Eos (3 h)?
**A.** 0.8%

**Q.** And the Fbg (3 h)?
**A.** 303.6 mg/dL

**Q.** And the Hb (3 h)?
**A.** 14.2 g/dL

**Q.** And the Ht (3 h)?
**A.** 42.4%

**Q.** And the Lym (3 h)?
**A.** 77.2%

**Q.** And the MCH (3 h)?
**A.** 21.3 pg

**Q.** What about the MCHC (3 h) of the same molecule?
**A.** 33.4%

**Q.** And the MCV (3 h)?
**A.** 63.7 fL

**Q.** And the Mono (3 h)?
**A.** 3.2%

**Q.** What about the Neu (3 h) of the same molecule?
**A.** 17.6%

**Q.** And the PT (3 h)?
**A.** 14 s

**Q.** And the Plat (3 h)?
**A.** 128.5 x10_4/uL

**Q.** And the RBC (3 h)?
**A.** 666 x10_4/ul

**Q.** What about the Ret (3 h) of the same molecule?
**A.** 7.5%

**Q.** And the WBC (3 h)?
**A.** 118.9 x10_2/uL

**Q.** What about the KIDNEY_L (3 h) of the same molecule?
**A.** 1 g

**Q.** What about the KIDNEY_R (3 h) of the same molecule?
**A.** 1 g

**Q.** What about the KIDNEY_TOTAL (3 h) of the same molecule?
**A.** 2 g

**Q.** What about the LIVER (3 h) of the same molecule?
**A.** 9.5 g

**Q.** And the A/G (3 h)?
**A.** 1

**Q.** What about the ALP (3 h) of the same molecule?
**A.** 1286.4 IU/L

**Q.** What about the ALT (3 h) of the same molecule?
**A.** 36.6 IU/L

**Q.** What about the AST (3 h) of the same molecule?
**A.** 71 IU/L

**Q.** And the BUN (3 h)?
**A.** 12.8 mg/dL

**Q.** What about the CRE (3 h) of the same molecule?
**A.** 0.2 mg/dL

**Q.** And the Ca (3 h)?
**A.** 10.8 mg/dL

**Q.** And the Cl (3 h)?
**A.** 105.8 meq/L

**Q.** And the DBIL (3 h)?
**A.** 0.01 mg/dL

**Q.** What about the GLC (3 h) of the same molecule?
**A.** 166.4 mg/dL

**Q.** And the IP (3 h)?
**A.** 8.6 mg/dL

**Q.** What about the K (3 h) of the same molecule?
**A.** 5.2 meq/L

**Q.** And the LDH (3 h)?
**A.** 56.2 IU/L

**Q.** And the Na (3 h)?
**A.** 141 meq/L

**Q.** What about the PL (3 h) of the same molecule?
**A.** 142.6 mg/dL

**Q.** And the RALB (3 h)?
**A.** 2.7 g/dL

**Q.** And the TBIL (3 h)?
**A.** 0.06 mg/dL

**Q.** And the TC (3 h)?
**A.** 77.6 mg/dL

**Q.** What about the TG (3 h) of the same molecule?
**A.** 67.2 mg/dL

**Q.** And the TP (3 h)?
**A.** 5.5 g/dL

**Q.** And the gamma-GTP (3 h)?
**A.** 1 IU/L

**Q.** What about the TERMINAL_BW (6 h) of the same molecule?
**A.** 206.9 g

**Q.** And the APTT (6 h)?
**A.** 17.1 s

**Q.** And the Bas (6 h)?
**A.** 0%

**Q.** And the Eos (6 h)?
**A.** 1%

**Q.** What about the Fbg (6 h) of the same molecule?
**A.** 349 mg/dL

**Q.** What about the Hb (6 h) of the same molecule?
**A.** 14.4 g/dL

**Q.** What about the Ht (6 h) of the same molecule?
**A.** 43.7%

**Q.** And the Lym (6 h)?
**A.** 74.4%

**Q.** What about the MCH (6 h) of the same molecule?
**A.** 20.9 pg

**Q.** What about the MCHC (6 h) of the same molecule?
**A.** 33%

**Q.** What about the MCV (6 h) of the same molecule?
**A.** 63.3 fL

**Q.** And the Mono (6 h)?
**A.** 2.8%

**Q.** And the Neu (6 h)?
**A.** 20.8%

**Q.** What about the PT (6 h) of the same molecule?
**A.** 13.9 s

**Q.** And the Plat (6 h)?
**A.** 123.5 x10_4/uL

**Q.** What about the RBC (6 h) of the same molecule?
**A.** 690.6 x10_4/ul

**Q.** And the Ret (6 h)?
**A.** 7.5%

**Q.** What about the WBC (6 h) of the same molecule?
**A.** 94.4 x10_2/uL

**Q.** And the KIDNEY_L (6 h)?
**A.** 1 g

**Q.** And the KIDNEY_R (6 h)?
**A.** 1 g

**Q.** And the KIDNEY_TOTAL (6 h)?
**A.** 1.9 g

**Q.** And the LIVER (6 h)?
**A.** 9.1 g

**Q.** And the A/G (6 h)?
**A.** 1

**Q.** And the ALP (6 h)?
**A.** 1417.8 IU/L

**Q.** What about the ALT (6 h) of the same molecule?
**A.** 37.8 IU/L

**Q.** What about the AST (6 h) of the same molecule?
**A.** 76.6 IU/L

**Q.** And the BUN (6 h)?
**A.** 11.8 mg/dL

**Q.** What about the CRE (6 h) of the same molecule?
**A.** 0.2 mg/dL

**Q.** What about the Ca (6 h) of the same molecule?
**A.** 10.9 mg/dL

**Q.** What about the Cl (6 h) of the same molecule?
**A.** 105.8 meq/L

**Q.** What about the DBIL (6 h) of the same molecule?
**A.** 0.01 mg/dL

**Q.** And the GLC (6 h)?
**A.** 169.6 mg/dL

**Q.** What about the IP (6 h) of the same molecule?
**A.** 9.4 mg/dL

**Q.** What about the K (6 h) of the same molecule?
**A.** 5.3 meq/L

**Q.** And the LDH (6 h)?
**A.** 65.2 IU/L

**Q.** And the Na (6 h)?
**A.** 140 meq/L

**Q.** What about the PL (6 h) of the same molecule?
**A.** 150.6 mg/dL

**Q.** And the RALB (6 h)?
**A.** 2.8 g/dL

**Q.** And the TBIL (6 h)?
**A.** 0.058 mg/dL

**Q.** And the TC (6 h)?
**A.** 80.8 mg/dL

**Q.** And the TG (6 h)?
**A.** 55.6 mg/dL

**Q.** And the TP (6 h)?
**A.** 5.8 g/dL

**Q.** What about the gamma-GTP (6 h) of the same molecule?
**A.** 1 IU/L
